Literature values in patent publication US11219662B2, “Methods for treating hypotension in a patient that has received an ACE inhibitor by administering angiotensin II” (La Jolla Pharma, LLC, priority 2016, dated 2022).

Conditions: no experiment described

| Molecule | activity relative to the activity of angiotensin II (of the activity of angiotensin II, background statement) | activity compared with angiotensin II (qualitative background statement) |
| --- | --- | --- |
| Arg-Val-Tyr-Ile-His-Pro-Phe (RVYIHPF; printed: Arg-Val-Tyr-Ile-His-Pro-Phe) [Angiotensin III] | approximately 40% | – |
| CC[C@H](C)[C@H](NC(=O)[C@H](Cc1ccc(O)cc1)NC(=O)[C@@H](N)C(C)C)C(=O)N[C@@H](Cc1cnc[nH]1)C(=O)N1CCC[C@H]1C(=O)N[C@@H](Cc1ccccc1)C(=O)O [Angiotensin IV, Val-Tyr-Ile-His-Pro-Phe] | – | less activity than angiotensin II |
